The conditions of data set [1]: monovalent trastuzumab knob-hole cyclotide fusions, 25 mg/kg, 24 hours, brain homogenate ELISA, versus trastuzumab alone; FIG. 8B. On the technique in general: In an ELISA, binding on a coated surface is turned into a signal by an enzyme label.
Protocol: Female C57BL/6 mice, age 10-12 weeks, were weighed and administered purified trastuzumab antibody or trastuzumab antibody-monovalent cyclotide fusions, made monovalent by knobs-holes fusion (targeting IGF1R, LRP1, or RAGE receptors) in triplicate at 25 mg/kg in phosphate buffered saline (PBS). After 24 hours, mice were perfused with Dulbecco's PBS containing anesthetic via aortic puncture and brains were removed. One brain hemisphere was transferred to 4% paraformaldehyde in PBS for 24 hours at 4° C., then transferred to PBS at 4° C., paraffin embedded, thin-sectioned using a microtome, and slices were mounted on slides for immunohistochemistry (IHC). The other brain hemisphere was flash frozen and stored at −80° C. prior to homogenization. […]
Antibodies present in brain were quantified by enzyme-linked immunosorbent assay (ELISA). […] Plates were washed 4 times with TBST and once with TBS, developed with 3,3′,5,5′-tetramethylbenzidine (TMB) for 2 minutes, quenched with 1 N sulfuric acid, and read at 450 nm in a SpectraMax plate reader. […] Amounts of antibodies (e.g., antibody fusion proteins or antibody alone) present in brain homogenates were determined by interpolation from each standard curve and were expressed as percents of injected dose per gram of brain (FIG. 8B).
The conditions of data set [2]: rat, even after repeat dose; cited from earlier work.
For data set [3] the following is noted: mouse, even after repeat dose; cited from earlier work.
In data set [4] the target is T1, mouse transferrin receptor (mTfR) (Mus musculus, UniProt Q62351).
T1 construct: expressed in transfected cells; host or cells: HEK293F
Nature of the data set: Flow cytometry internalization assay, mTfR-expressing HEK293F cells. The note with it: 50 nM Alexafluor 488 labeled protein, 4 h at 37° C., HEK293F cells transfected with mTfR; FIG. 2. It counts as cell-based. On the procedure:
(§1) Free dye was then removed by passage through one to two desalting columns. HEK293F cells were first serially passaged two to three times, then transfected with expression constructs encoding human or mouse transferrin receptor ([…], respectively), and grown for 2-3 days at 37° C., 8% CO2, 130 rpm shaking in preparation for the assay. […] Cells were then pelleted, supernatant discarded, and resuspended in 40 μL fresh media containing 250 nM anti-488 quenching antibody (or media lacking 488 quenching antibody as a control), incubated on ice for 5 min, pelleted, supernatant discarded, washed with 200 μL cold FACS buffer, pelleted, supernatant discarded, and resuspended in 200 μL cold FACS buffer. Each sample was then subjected to FACS analysis using the FITC fluorescence detection channel, using Gate 1 (forward scatter linear vs. side scatter linear) to select live cells with normal morphology, using Gate 2 (side scatter area vs. side scatter linear) to select single cells, and measuring logarithmic FITC signal for 20,000-50,000 cells per sample. Subsequent data analysis was carried out using the FlowJo software package.
(In general: A flow cytometer gives signals particle by particle.)

Data set [5] has as its target T2, human transferrin receptor (hTfR) (Homo sapiens, UniProt P02786).
T2 construct: expressed in transfected cells; host or cells: HEK293F
Nature of the data set: Flow cytometry internalization assay, hTfR-expressing HEK293F cells. The note with it: 50 nM Alexafluor 488 labeled protein, 4 h at 37° C., HEK293F cells transfected with hTfR; FIG. 2. It counts as cell-based. The method, then:
as §1

Where two headings read alike, the source gives them in different places. Ends that are not written are not given here.

T1 sequence (Q62351 whole entry): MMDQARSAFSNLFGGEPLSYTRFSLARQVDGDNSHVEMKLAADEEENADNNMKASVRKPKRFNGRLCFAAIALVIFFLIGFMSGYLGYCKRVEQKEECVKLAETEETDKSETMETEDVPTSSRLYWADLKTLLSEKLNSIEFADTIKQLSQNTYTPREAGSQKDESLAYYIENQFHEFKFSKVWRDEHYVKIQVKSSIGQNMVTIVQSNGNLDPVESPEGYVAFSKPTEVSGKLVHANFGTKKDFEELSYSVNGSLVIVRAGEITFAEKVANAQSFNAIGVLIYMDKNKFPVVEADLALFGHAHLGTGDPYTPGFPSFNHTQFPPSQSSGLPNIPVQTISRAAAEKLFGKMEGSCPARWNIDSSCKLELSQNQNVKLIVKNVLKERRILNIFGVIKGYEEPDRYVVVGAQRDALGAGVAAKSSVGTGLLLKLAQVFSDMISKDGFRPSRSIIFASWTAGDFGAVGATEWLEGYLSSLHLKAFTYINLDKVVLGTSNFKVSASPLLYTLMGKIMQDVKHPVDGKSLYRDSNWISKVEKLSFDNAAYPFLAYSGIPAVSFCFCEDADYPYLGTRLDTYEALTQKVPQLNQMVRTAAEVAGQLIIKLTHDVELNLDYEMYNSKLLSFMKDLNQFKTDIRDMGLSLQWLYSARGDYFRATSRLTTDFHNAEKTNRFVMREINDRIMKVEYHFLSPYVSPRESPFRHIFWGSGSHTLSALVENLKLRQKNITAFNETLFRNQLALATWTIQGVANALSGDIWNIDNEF
T2 sequence (P02786 whole entry): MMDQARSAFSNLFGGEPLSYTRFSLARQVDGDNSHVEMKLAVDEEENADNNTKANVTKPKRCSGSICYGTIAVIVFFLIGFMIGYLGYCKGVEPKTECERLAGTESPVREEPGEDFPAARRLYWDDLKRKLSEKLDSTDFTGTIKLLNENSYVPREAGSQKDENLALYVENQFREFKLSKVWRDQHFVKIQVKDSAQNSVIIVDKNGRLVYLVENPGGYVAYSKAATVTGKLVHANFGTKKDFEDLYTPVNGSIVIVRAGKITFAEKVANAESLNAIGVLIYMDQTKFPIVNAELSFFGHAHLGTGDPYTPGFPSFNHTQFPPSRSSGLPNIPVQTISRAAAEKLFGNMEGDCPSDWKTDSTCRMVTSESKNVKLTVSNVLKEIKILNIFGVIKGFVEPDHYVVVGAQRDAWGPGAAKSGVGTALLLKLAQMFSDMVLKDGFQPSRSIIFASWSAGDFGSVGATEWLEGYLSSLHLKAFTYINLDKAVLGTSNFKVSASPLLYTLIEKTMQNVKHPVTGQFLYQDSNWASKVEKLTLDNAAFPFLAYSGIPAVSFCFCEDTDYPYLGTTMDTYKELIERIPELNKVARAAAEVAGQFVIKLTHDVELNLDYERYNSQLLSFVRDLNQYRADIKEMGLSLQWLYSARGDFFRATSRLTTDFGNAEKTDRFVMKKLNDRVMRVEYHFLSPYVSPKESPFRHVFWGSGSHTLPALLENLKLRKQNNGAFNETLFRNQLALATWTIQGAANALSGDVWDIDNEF

Regarding “cyclotide binding Hu LRP-1; loop 1 peptide WYETKTKLYVGVVK (SEQ ID NO:43); cyclotide SEQ ID NO:89 (GGVCWYETKTKLYVGVVKCRRDSDCPGACICRGNGYCGSGSD; not fully specified (bridges); cysteine pairing not given here) [CYC34]”, the “trastuzumab delivery to the brain (percents of injected dose per gram of brain)” value in data set [1] was “greatest enhancement”.
Ziconitide: the “anti-drug antibodies (ADAs)” value in data set [2] and in data set [3] was “no anti-drug antibodies (ADAs) were detectable” in each case.
Take “cyclotide binding Hu LRP-1; loop 1 peptide WLTLGIANKGIDVYDVK (SEQ ID NO:39); cyclotide SEQ ID NO:85 (GGVCWLTLGIANKGIDVYDVKCRRDSDCPGACICRGNGYCGSGSD; not fully specified (bridges); cysteine pairing not given here) [CYC30]”: the “trastuzumab delivery to the brain (percents of injected dose per gram of brain)” value in data set [1] is recorded as “did not exhibit enhancement”.
adalimumab: the “internalization (mean FITC fluorescence intensity)” value in data set [4] and in data set [5] was “not” each time.

Values taken from patent US20250340604A1, “BLOOD-BRAIN BARRIER TRANSLOCATING PEPTIDES AND RELATED MOLECULES AND METHODS OF USE THEREOF” (Enkefalos Biosciences, Inc., priority 2022, published 2025).
